From BindingDB's records for doi:10.7270/Q2319T8T (The Scripps Research Institute Molecular Screening Center, 2007)
pIC50: −log10 of the molar value. Where a name gives a salt, the structure may show the parent alone.

Target: Steroidogenic factor 1 (Homo sapiens, UniProt Q13285)
Test: SF-1 inhibitor potency, dose response, cell-based, CHO-K1, Gal4-SF-1 LBD, luciferase luminescence (AID 600)
[1] = inactive by the depositor's call

Sequence of Steroidogenic factor 1 (Q13285 whole entry, the tested form may be a part): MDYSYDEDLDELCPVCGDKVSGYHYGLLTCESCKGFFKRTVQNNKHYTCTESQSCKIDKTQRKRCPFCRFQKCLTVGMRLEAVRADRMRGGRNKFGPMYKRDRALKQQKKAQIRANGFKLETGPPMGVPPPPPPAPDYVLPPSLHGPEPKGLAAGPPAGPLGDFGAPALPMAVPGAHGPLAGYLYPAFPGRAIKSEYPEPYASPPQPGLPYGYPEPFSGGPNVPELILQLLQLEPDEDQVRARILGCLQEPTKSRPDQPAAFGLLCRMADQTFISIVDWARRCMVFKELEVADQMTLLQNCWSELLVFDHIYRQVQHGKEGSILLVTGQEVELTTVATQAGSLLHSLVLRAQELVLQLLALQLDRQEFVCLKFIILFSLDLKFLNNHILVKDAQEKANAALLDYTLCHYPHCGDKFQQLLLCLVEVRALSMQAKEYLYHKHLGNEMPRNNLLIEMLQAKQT

Row | SMILES | pIC50 | pIC50 [1]
1 | O=C(Nc1nc(-c2ccccn2)cs1)c1ccc(Cl)s1 [5-chloranyl-N-(4-pyridin-2-yl-1,3-thiazol-2-yl)thiophene-2-carboxamide] | < 5.44 | –
2 | COc1cccc(N2CCN(c3ncnc4c3[nH]c3ccccc34)CC2C)c1 (centres undefined) [4-[4-(3-methoxyphenyl)-3-methyl-1-piperazinyl]-5H-pyrimido[5,4-b]indole] | – | 4.54
3 | C[C@@]1(CO)[C@H](O)CC[C@@]2(C)[C@H]1CC[C@H]1C[C@@H]3C[C@@]12CC[C@]3(O)CO [6,13-di(hydroxymethyl)-2,6-dimethyl-(1S,2S,5R,6R,7R,10S,12R,13R)-tetracyclo[10.3.1.01,10.02,7]hexadecane-5,13-diol (Aphidicolin)] | 6.26 | –
4 | Cc1cc(N2CCN(c3nc4ccccc4s3)CC2)n2ncnc2n1 [2-[4-(5-methyl-[1,2,4]triazolo[1,5-a]pyrimidin-7-yl)-1-piperazinyl]-1,3-benzothiazole] | – | 4.64
5 | N#CC(C#N)=c1ccc2c(c1)NC1(CCCCC1)N=2 [2-spiro[3H-benzimidazole-2,1'-cyclohexane]-5-ylidenepropanedinitrile] | – | 5.00
6 | Cc1ccsc1C(=O)OCC(=O)c1cc(C)n(CC2CCCO2)c1C (centres undefined) [3-methyl-2-thiophenecarboxylic acid [2-[2,5-dimethyl-1-(2-oxolanylmethyl)-3-pyrrolyl]-2-oxoethyl] ester] | < 7.34 | –
7 | CCOC(=O)C1CCN(c2ncnc3c2cnn3-c2ccc(Cl)cc2)CC1 [1-[1-(4-chlorophenyl)-4-pyrazolo[3,4-d]pyrimidinyl]-4-piperidinecarboxylic acid ethyl ester] | 5.47 | –
8 | CCCCOC(=O)c1[nH]c2c(c1C)C(=O)CC(c1cc(OC)c(OC)c(OC)c1)C2 (centres undefined) | – | 4.77
9 | COc1ccc(-n2ncc3c(N4CCCCC4)ncnc32)cc1 [1-(4-methoxyphenyl)-4-(1-piperidinyl)pyrazolo[3,4-d]pyrimidine] | 5.75 | –
10 | COc1cc(C(=O)Oc2c(CN3CCOCC3)cc(Cl)c3cccnc23)cc(OC)c1OC [3,4,5-trimethoxybenzoic acid [5-chloro-7-(4-morpholinylmethyl)-8-quinolinyl] ester] | – | 4.91
11 | CCOC(=O)c1cnc(-n2nc(C)cc2C)nc1NC(C)c1ccccc1 (centres undefined) [2-(3,5-dimethyl-1-pyrazolyl)-4-(1-phenylethylamino)-5-pyrimidinecarboxylic acid ethyl ester] | 5.16 | –
12 | CCn1c(C)nc2cc(-c3nc4n(n3)Cc3ccccc3-4)ccc21 [2-(1-ethyl-2-methyl-5-benzimidazolyl)-5H-[1,2,4]triazolo[5,1-a]isoindole] | > 8.30 | –
13 | O=C1c2ccccc2C(=O)C1c1nccc2ccccc12 [2-(1-isoquinolinyl)indene-1,3-dione] | 5.39 | –
14 | c1c2c(cc3sc(N4CCOCC4)nc13)OCCO2 [2-(4-morpholinyl)-6,7-dihydro-[1,4]dioxino[2,3-f][1,3]benzothiazole] | < 5.44 | –
15 | c1ccc(-c2noc(-c3ccc4c(c3)OCO4)n2)nc1 [2-[5-(1,3-benzodioxol-5-yl)-1,2,4-oxadiazol-3-yl]pyridine] | 5.87 | –
16 | Cc1ccc(CNc2nc3ccccc3s2)s1 [1,3-benzothiazol-2-yl-[(5-methyl-2-thienyl)methyl]amine] | < 4.96 | –
17 | CCOc1ccc(C2=Nn3c(nnc3-c3ccccc3OC)SC2)cc1 [6-(4-ethoxyphenyl)-3-(2-methoxyphenyl)-7H-[1,2,4]triazolo[3,4-b][1,3,4]thiadiazine] | < 6.39 | –
18 | CCc1c(C)nc2ncnn2c1NCCc1ccc(OC)cc1 [(6-Ethyl-5-methyl-[1,2,4]triazolo[1,5-a]pyrimidin-7-yl)-[2-(4-methoxy-phenyl)-ethyl]-amine] | < 4.96 | –
19 | O=C(Nc1ccccc1NC(=O)NC1CCCCC1)NC1CCCCC1 [1-cyclohexyl-3-[2-(cyclohexylcarbamoylamino)phenyl]urea] | 5.79 | –
20 | COc1cccc2sc(Nc3nc(-c4ccccn4)cs3)nc12 [(4-methoxy-1,3-benzothiazol-2-yl)-[4-(2-pyridyl)thiazol-2-yl]amine] | 5.35 | –
21 | CCCCCOC(=O)c1[nH]c2c(c1C)C(=O)CC(c1ccco1)C2 (centres undefined) [pentyl 6-(furan-2-yl)-3-methyl-4-oxidanylidene-1,5,6,7-tetrahydroindole-2-carboxylate] | < 5.91 | –
22 | COc1ccc(OC)c(NC(=O)CSc2nnnn2-c2ccc3c(c2)OCO3)c1 [2-(1-Benzo[1,3]dioxol-5-yl-1H-tetrazol-5-ylsulfanyl)-N-(2,5-dimethoxy-phenyl)-acetamide] | 5.63 | –

Row | SMILES | pIC50 | pIC50 [1]
23 | Cn1c(SC2=CS(=O)(=O)c3ccccc32)nc2ccccc21 [2-(1,1-Dioxo-1H-1lambda*6*-benzo[b]thiophen-3-ylsulfanyl)-1-methyl-1H-benzoimidazole] | < 5.44 | –
24 | COCc1cc(CN2CCCC2)c(O)c2ncccc12 [5-(methoxymethyl)-7-(1-pyrrolidinylmethyl)-8-quinolinol] | 5.38 | –
25 | O=C(Cc1ccc(Cl)cc1)Nc1ccc(-c2nnc(-c3ccco3)o2)cc1 [2-(4-chlorophenyl)-N-[4-[5-(2-furanyl)-1,3,4-oxadiazol-2-yl]phenyl]acetamide] | 5.04 | –
26 | CC(C)OCCCNc1ncnc2c1[nH]c1ccc(F)cc12 | – | 4.68
27 | CCOC(=O)c1cnc(-n2nc(C)cc2C)nc1NC1CCCCC1 [4-(cyclohexylamino)-2-(3,5-dimethyl-1-pyrazolyl)-5-pyrimidinecarboxylic acid ethyl ester] | 5.25 | –
28 | COC(=O)c1ccc(Oc2cc(C)nc(-n3nc(C)cc3C)n2)cc1 [4-[2-(3,5-dimethylpyrazol-1-yl)-6-methyl-pyrimidin-4-yl]oxybenzoic acid methyl ester] | 5.07 | –
29 | Clc1ccc(OCCN2CCN(c3ncnc4sccc34)CC2)cc1 [4-[4-[2-(4-chloranylphenoxy)ethyl]piperazin-1-yl]thieno[2,3-d]pyrimidine] | 5.46 | –
30 | CN(C)c1ccc2c(c1)OC(=N)C(C#N)C2c1cccc(F)c1 (centres undefined) [2-amino-7-(dimethylamino)-4-(3-fluorophenyl)-4H-1-benzopyran-3-carbonitrile] | 4.96 | –
31 | Cc1cccc(NC(=O)Nc2ccc(C#N)cc2)n1 [1-(4-cyanophenyl)-3-(6-methyl-2-pyridinyl)urea] | < 5.91 | –
32 | CN(C)CC(C(=O)c1ccccc1)c1ccccc1 (centres undefined) [3-(dimethylamino)-1,2-diphenyl-1-propanone;hydrochloride] | < 5.44 | –
33 | CC1(C)CC(=O)C2=C(C1)Oc1nc3ccccc3cc1C2C(C#N)C#N (centres undefined) [2-(1-keto-3,3-dimethyl-4,12-dihydro-2H-chromeno[2,3-b]quinolin-12-yl)malononitrile] | 5.12 | –
34 | CC(C)c1ccc2oc(-c3cc(N)ccc3O)nc2c1 [(6E)-4-amino-6-(5-isopropyl-3H-1,3-benzoxazol-2-ylidene)cyclohexa-2,4-dien-1-one] | 4.98 | –
35 | Clc1ccc(-n2ncc3c(N4CCCCCC4)ncnc32)cc1 [4-(1-azepanyl)-1-(4-chlorophenyl)pyrazolo[3,4-d]pyrimidine] | 5.50 | –
36 | Cn1c(-c2ccccc2)cc2c3no[n+]([O-])c3ccc21 [6-methyl-3-oxidanidyl-7-phenyl-pyrrolo[2,3-g][2,1,3]benzoxadiazol-3-ium] | – | 4.82
37 | CCN(C1CCCCC1)S(=O)(=O)c1ccc(S(=O)(=O)NCc2ccncc2)cc1 [4-N-cyclohexyl-4-N-ethyl-1-N-(pyridin-4-ylmethyl)benzene-1,4-disulfonamide] | – | 4.71
38 | CCN1C=CC(=C2C(=O)c3ccccc3C2=O)C=C1 [2-(1-ethyl-4-pyridinylidene)indene-1,3-dione] | 6.02 | –
39 | O=C(c1ccc2c3c(cccc13)C(=O)N(O)C2=O)N1CCCCC1 [2-hydroxy-6-(piperidine-1-carbonyl)benzo[de]isoquinoline-1,3-dione] | 5.72 | –
40 | CCCCn1c2c(c(=O)n(C)c1=O)C(c1ccc(OC)cc1)N1CCCCCC1=N2 (centres undefined) [1-butyl-5-(4-methoxyphenyl)-3-methyl-5,7,8,9,10,11-hexahydropyrimido[3,4]pyrimid[4,5-a]azepine-2,4-quinone] | 5.10 | –
41 | CCOC(=O)c1oc2ccc(S(=O)(=O)Nc3ccc4c(c3)n(C)c(=O)n4C)cc2c1C [5-[(1,3-dimethyl-2-oxo-5-benzimidazolyl)sulfamoyl]-3-methyl-2-benzofurancarboxylic acid ethyl ester] | – | 4.59
42 | c1ccc(-c2ccc(-c3ccccn3)nn2)nc1 [3,6-bis(2-pyridinyl)pyridazine] | < 4.96 | –
43 | O=C(Nc1nc(-c2ccccn2)cs1)c1ccc(S(=O)(=O)N2CCCCC2)cc1 [4-(1-piperidinylsulfonyl)-N-[4-(2-pyridinyl)-2-thiazolyl]benzamide] | 5.00 | –

Second part, the compound after the results:

Row | pIC50 | pIC50 [1] | SMILES
44 | < 4.00 | – | c1cncc(-c2nnc(SCc3nc4ccccc4[nH]3)o2)c1 [MLS000062679]
45 | – | 4.85 | CC(=O)c1c(C)[nH]c(C(=O)Nc2ccc(C)cn2)c1C [SMR000026816]
46 | 5.08 | – | CCOC(=O)c1c(C)[nH]c(C(=O)C(C)OC(=O)c2cccc(OCc3c(C)noc3C)c2)c1C (centres undefined) [MLS000054923]
47 | 5.09 | – | Cc1cc(NC(=O)CCCS(=O)(=O)c2nc(-c3cccs3)cc(C(F)(F)F)n2)no1 [MLS000086269]
48 | 5.11 | – | COc1cc(C2Nc3cccc4cccc(c34)N2)cc(OC)c1OC(C)=O [MLS000078084]
49 | < 5.44 | – | Cc1ccc2c(c1)[nH]c1c(N3CCN(Cc4ccccc4)CC3)ncnc12 [SMR000044826]
50 | < 4.96 | – | C/C(Cl)=C\Cn1c(NCCc2ccccc2)nc2c1c(=O)n(C)c(=O)n2C [SMR000044779]
51 | 5.29 | – | COc1ccc(CCNc2nnc(Sc3nnnn3-c3ccccc3)s2)cc1OC [MLS000056567]
52 | 6.23 | – | COCCNC(=O)CSCc1nc(-c2ccc(SC)cc2)oc1C [MLS000089367]
53 | – | 4.90 | CCOc1ccc(-c2cc(CCCC(=O)Nc3cc(OC)ccc3OC)no2)cc1 [MLS000045930]
54 | – | 4.89 | Cn1nc(CC(=O)Nc2ccc3c(c2)OCCO3)c2ccccc2c1=O [MLS000047020]
55 | 5.16 | – | CCn1c2ccccc2c2cc(NC(=O)CSc3nnnn3-c3ccccc3)ccc21 [MLS000051054]
56 | < 4.96 | – | Cc1sc(NC(=O)c2ccco2)c(C(c2cccnc2)N2CCN(c3ccc(F)cc3)CC2)c1C (centres undefined) [MLS000114428]
57 | – | 4.87 | Cc1ccnc(SCC(=O)Nc2sc3c(c2C#N)CCCC3)n1 [MLS000077260]
58 | < 5.44 | – | CN(C)c1ccc(-c2nc3ccccc3n2C)cc1 [MLS000089904]
59 | < 5.44 | – | COc1ccc(C=Nn2nnc3ccccc32)cc1 [MLS000043825]
